Literature values as cited in article PMC10757118, “HS‐10352 in hormone receptor‐positive, HER2‐negative advanced breast cancer: A phase 1 dose‐escalation trial” (Cancer Medicine, 2023).

Legend:
[1] = system: PIK3CA‐mutant breast cancer; design: method as in PMID 29066505; settings: PIK3CA‐mutant breast cancer patients ref 31
[2] = system: PIK3CA‐mutant, HR‐positive, HER2‐negative breast cancer; design: method as in ref 33 = [33]; 33 Juric D , Kalinsky K , Oliveira M , et al. Abstract OT1‐08‐04: a first‐in‐human phase Ia dose escalation study of GDC‐0077, a p110a‐selective and mutant‐degrading PI3K inhibitor, in patients with P; settings: single agent, HER2‐negative breast cancer patients ref 33
[3] = system: ER‐positive, HER2‐negative breast cancer; design: method as in PMID 29401002; settings: monotherapy, HER2‐negative breast cancer patients ref 19
[4] = system: HR‐positive, HER2‐negative breast cancer with altered AKT pathways; design: method as in ref 35 = [35]; 35 Turner N , Oliveira M , Howell SJ , et al. Abstract GS3‐04: GS3‐04 Capivasertib and fulvestrant for patients with aromatase inhibitor‐resistant hormone receptor‐positive/human epidermal growth fact; settings: CAPItello‐291, altered AKT pathways ref 35

NC1(C(=O)N[C@@H](CCO)c2ccc(Cl)cc2)CCN(c2ncnc3[nH]ccc23)CC1 [Capivasertib]
ORR [1]: 4%

C[C@H](Nc1ccc2c(c1)OCCn1cc(N3C(=O)OC[C@H]3C(F)F)nc1-2)C(N)=O [GDC‐0077]
confirmed ORR [2]: 20%

Cc1nc(NC(=O)N2CCC[C@H]2C(N)=O)sc1-c1ccnc(C(C)(C)C(F)(F)F)c1 [alpelisib]
ORR [3]: 4.3%

C[C@]12CC[C@@H]3c4ccc(O)cc4C[C@@H](CCCCCCCCC[S+]([O-])CCCC(F)(F)C(F)(F)F)[C@H]3[C@@H]1CC[C@@H]2O (some centres unmarked) [fulvestrant without capivasertib]
ORR [4]: 9.7%
median PFS [4]: 3.1 months
